Reference: patent publication US7829591B2, “Flavanone compound and uses thereof” (Pokka Corporation, priority 2003, dated 2010)

Key:
[1] = tested on: Salmonella enteritidis (S. en; NBRC3313); experiment: Antimicrobial activity test with Compounds 1 to 4; format: cell-based; conditions: for effect on growth and development of S. en (in words): 5-50 ppm
Procedure: (§1) That is, first of all, each of Compounds 1 to 4 was dissolved in 70% ethanol, and thereafter, standard agar media were prepared wherein the concentration of each of Compounds 1 to 4 was adjusted to be 0 ppm, 5 ppm, 10 ppm, 15 ppm, 20 ppm, or 50 ppm. Subsequently, these standard agar media were subjected to autoclave sterilization so as to prepare evaluation media, and each of the biological indicators was inoculated in each of these evaluation media. After the incubation of each of the bacteria, the number of the bacteria per a petri dish (CFU/petri dish) was determined.

Bacillus cereus (B. ce) = experiment: Antimicrobial activity test with Compounds 1 to 4; format: cell-based; conditions: for effect on growth and development of spore forming bacteria, B. ce (in words): 5-50 ppm
Procedure: as §1

E. coli = experiment: Antimicrobial activity test with Compounds 1 to 4; format: cell-based; conditions: for effect on growth and development of E. coli (in words): 5-50 ppm
Procedure: as §1

[2] = tested on: Staphylococcus aureus (Sta.); experiment: Antimicrobial activity test with Compounds 1 to 4; format: cell-based; conditions: for effect on growth and development of Gram-positive bacteria, Sta. (in words): 5-50 ppm
Procedure: as §1

[3] = DPPH radical scavenging activity test; format: biochemical; conditions: 25 μM sample solution in ethanol, 1 h in dark, absorbance 517 nm; average ± SD of three runs
Procedure: DPPH (α,α-diphenyl-β-picrylhydradil) is a purple stable radical having a maximum absorption at 517 nm, which is converted into colorless hydrazine by gaining hydrogen. This color reaction was utilized so as to determine the radical scavenging activity of each of Compounds 1 to 4 and the like. That is, each of Compounds 1 to 4 was dissolved in ethanol to prepare 3 ml of a sample solution having a concentration of 25 μM. Thereafter, to each of the resultant sample solutions, 0.75 ml of a 0.5 mM DPPH solution (whose solvent was ethanol) was added and stirred, and reacted in a dark place for one hour, followed by the determination of an absorbance at 517 nm. Furthermore, in place of Compounds 1 to 4, BHT (butylated hydroxytoluene), α-tocopherol or eriodictyol was used so as to determine an absorbance according to a similar procedure to the above. Besides, instead of the above sample solutions, ethanol was used as a control so as to determine an absorbance according to a similar procedure to the above. Then the radical scavenging activity (%) of each of the materials was calculated using the following calculation formula 1. Incidentally, each of values shown in Table 1 is the average value and standard deviation of values obtained from three runs. (Radical Scavenging Activity)=[{(Absorbance of Control)−(Absorbance of Sample Solution)}/(Absorbance of Control)]×100 Calculation Formula 1

β-carotene fading test = format: biochemical; conditions: for Antioxidant Activity (%) from β-carotene Fading Test: 20 μM in reaction liquid, 60° C. for 60 minutes, absorbance 470 nm, average ± SD of three runs; for antioxidant activity (in words): comparison from Table 1
Procedure: β-carotene will fade due to the reaction of linoleic acid peroxide, which is produced by the autoxidation of linoleic acid, with a double bond in β-carotene. This phenomenon was utilized so as to determine the antioxidant activity of each of Compounds 1 to 4 and the like. That is, first of all, 2 ml of a 200 mg/ml solution of Tween-40 in chloroform, 0.4 ml of a 100 mg/ml solution of linoleic acid in chloroform, and 3 ml of a 0.1 mg/ml solution of β-carotene in chloroform were mixed, and thereafter the solvent was removed by using a nitrogen gas. Subsequently, 100 ml of distilled water was added thereto, and adequately stirred to obtain an emulsion. To 3 ml of this emulsion, ethanol was added to completely dissolve the solute in the solvent. Thereafter, each of Compounds 1 to 4 was dissolved in ethanol so as to prepare a sample solution having a concentration of 1.2 mM. 50 μl of the sample solution was mixed with the above emulsion wherein the solute had been completely dissolved so as to prepare a reaction liquid (or a sample reaction liquid). Then the concentration of each of Compounds 1 to 4 in the reaction liquid was 20 μM. The reaction liquid was incubated at 60° C. for 60 minutes. Then the absorbance of each of the reaction liquid before the incubation and the reaction liquid after the incubation was determined at 470 nm. Furthermore, BHT, α-tocopherol, or eriodictyol was used in place of Compounds 1 to 4 so as to determine the absorbance of the reaction liquid before and after incubation according to a similar procedure to the above-mentioned one. In addition, as a control, a reaction liquid (or a control reaction liquid) wherein no sample solution was contained was prepared so as to determine the absorbance of the reaction liquid before and after incubation according to a similar procedure to the above-mentioned one. The antioxidant activity (%) of each of the materials was calculated using the following calculation formula 2. Incidentally, each of values shown in Table 1 is the average value and standard deviation of values obtained from three runs. (Antioxidant Activity)=[{(Fading Rate of Control)−(Fading Rate of Sample Solution)}/(Fading Rate of Control)]×100 Calculation Formula 2
It should be noted that in the calculation formula 2, “Fading Rate of Control” is the natural logarithm of a value which is acquired by dividing the absorbance of the control reaction liquid before incubation by the absorbance of the control reaction liquid after incubation and further by dividing the resultant value by 60; and “Fading Rate of Sample Solution” is the natural logarithm of a value which is acquired by dividing the absorbance of the sample reaction liquid before incubation by the absorbance of the sample reaction liquid after incubation and further by dividing the resultant value by 60.

[4] = 5 ppm in standard agar medium, 0 ppm: >3000 (Table 3), 221 (Table 4)
[5] = 5 ppm in standard agar medium, 0 ppm: 13 (Table 3), 183 (Table 4)
[6] = 5 ppm in standard agar medium, 0 ppm: >3000 (Table 3), 5 (Table 4)
[7] = 5 ppm in standard agar medium, 0 ppm: 470 (Table 3), 202 (Table 4)

Compound	effect on growth and development of S. en (in words) [1]	Number of Bacteria, S. en [1, 4]	Number of Bacteria, S. en ([1]; 10 ppm in standard agar medium)	Number of Bacteria, S. en ([1]; 15 ppm in standard agar medium)	Number of Bacteria, S. en ([1]; 20 ppm in standard agar medium)	Number of Bacteria, S. en ([1]; 50 ppm in standard agar medium)	effect on growth and development of spore forming bacteria, B. ce (in words) (Bacillus cereus (B. ce))	Number of Bacteria, B. ce (Bacillus cereus (B. ce); [5])	Number of Bacteria, B. ce (Bacillus cereus (B. ce); 10 ppm in standard agar medium)	Number of Bacteria, B. ce (Bacillus cereus (B. ce); 15 ppm in standard agar medium)	Number of Bacteria, B. ce (Bacillus cereus (B. ce); 20 ppm in standard agar medium)	Number of Bacteria, B. ce (Bacillus cereus (B. ce); 50 ppm in standard agar medium)	effect on growth and development of E. coli (in words) (E. coli)	Number of Bacteria, E. coli (E. coli; [6])	Number of Bacteria, E. coli (E. coli; 10 ppm in standard agar medium)	Number of Bacteria, E. coli (E. coli; 15 ppm in standard agar medium)	Number of Bacteria, E. coli (E. coli; 20 ppm in standard agar medium)	Number of Bacteria, E. coli (E. coli; 50 ppm in standard agar medium)	effect on growth and development of Gram-positive bacteria, Sta. (in words) [2]	Number of Bacteria, Sta. [2, 7]	further results
CC(C)=CCC/C(C)=C/Cc1cc([C@@H]2CC(=O)c3c(O)cc(O)cc3O2)cc(O)c1O [Compound 2, 5,7,3′,4′-tetrahydroxy-5′-C-geranylflavanone]	little effect upon the growth and development	>3000 CFU/petri dish	>3000 CFU/petri dish	>3000 CFU/petri dish	>3000 CFU/petri dish	>3000 CFU/petri dish	more strongly the growth and development of each of Gram-5 positive bacteria and spore forming bacteria is inhibited	17 CFU/petri dish	0 CFU/petri dish	0 CFU/petri dish	0 CFU/petri dish	0 CFU/petri dish	little effect upon the growth and development	>3000 CFU/petri dish	>3000 CFU/petri dish	>3000 CFU/petri dish	>3000 CFU/petri dish	>3000 CFU/petri dish	more strongly the growth and development of each of Gram-5 positive bacteria and spore forming bacteria is inhibited	395 CFU/petri dish	Number of Bacteria, Sta. ([2]; 10 ppm in standard agar medium): 108 CFU/petri dish; Number of Bacteria, Sta. ([2]; 15 ppm in standard agar medium): 22 CFU/petri dish; Number of Bacteria, Sta. ([2]; 20 ppm in standard agar medium): 0 CFU/petri dish; Number of Bacteria, Sta. ([2]; 50 ppm in standard agar medium): 0 CFU/petri dish; Radical Scavenging Activity (%) from DPPH Radical Scavenging Activity Test [3]: 49.86 ± 0.96%; Antioxidant Activity (%) from β-carotene Fading Test (β-carotene fading test): 78.07 ± 1.79%; antioxidant activity (in words) (β-carotene fading test): about the same high antioxidant activity as that of each of BHT, α-tocopherol, and eriodictyol
CC(C)=CCC/C(C)=C/Cc1c([C@@H]2CC(=O)c3c(cc(O)c(CC=C(C)C)c3O)O2)ccc(O)c1O [Compound 4, 5,7,3′,4′-tetrahydroxy-6-(3′″,3′″-dimethylallyl)-2′-C-geranylflavanone]	antimicrobial activity	249 CFU/petri dish	199 CFU/petri dish	225 CFU/petri dish	132 CFU/petri dish	65 CFU/petri dish	high antimicrobial activity	16 CFU/petri dish	0 CFU/petri dish	0 CFU/petri dish	0 CFU/petri dish	0 CFU/petri dish	high antimicrobial activity	6 CFU/petri dish	6 CFU/petri dish	9 CFU/petri dish	6 CFU/petri dish	0 CFU/petri dish	high antimicrobial activity	26 CFU/petri dish	Number of Bacteria, Sta. ([2]; 10 ppm in standard agar medium): 7 CFU/petri dish; Number of Bacteria, Sta. ([2]; 15 ppm in standard agar medium): 10 CFU/petri dish; Number of Bacteria, Sta. ([2]; 20 ppm in standard agar medium): 1 CFU/petri dish; Number of Bacteria, Sta. ([2]; 50 ppm in standard agar medium): 0 CFU/petri dish; Radical Scavenging Activity (%) from DPPH Radical Scavenging Activity Test [3]: 50.79 ± 0.08%; Antioxidant Activity (%) from β-carotene Fading Test (β-carotene fading test): 80.06 ± 0.29%; antioxidant activity (in words) (β-carotene fading test): about the same high antioxidant activity as that of each of BHT, α-tocopherol, and eriodictyol
CC(C)=CCC/C(C)=C/Cc1c([C@@H]2CC(=O)c3c(O)cc(O)cc3O2)ccc(O)c1O [Compound 1, 5,7,3′,4′-tetrahydroxy-2′-C-geranylflavanone]	little effect upon the growth and development	>3000 CFU/petri dish	>3000 CFU/petri dish	>3000 CFU/petri dish	>3000 CFU/petri dish	>3000 CFU/petri dish	more strongly the growth and development of each of Gram-5 positive bacteria and spore forming bacteria is inhibited	12 CFU/petri dish	0 CFU/petri dish	0 CFU/petri dish	0 CFU/petri dish	0 CFU/petri dish	little effect upon the growth and development	>3000 CFU/petri dish	>3000 CFU/petri dish	>3000 CFU/petri dish	>3000 CFU/petri dish	>3000 CFU/petri dish	more strongly the growth and development of each of Gram-5 positive bacteria and spore forming bacteria is inhibited	344 CFU/petri dish	Number of Bacteria, Sta. ([2]; 10 ppm in standard agar medium): 36 CFU/petri dish; Number of Bacteria, Sta. ([2]; 15 ppm in standard agar medium): 0 CFU/petri dish; Number of Bacteria, Sta. ([2]; 20 ppm in standard agar medium): 0 CFU/petri dish; Number of Bacteria, Sta. ([2]; 50 ppm in standard agar medium): 0 CFU/petri dish; Radical Scavenging Activity (%) from DPPH Radical Scavenging Activity Test [3]: 55.35 ± 0.43%; Antioxidant Activity (%) from β-carotene Fading Test (β-carotene fading test): 85.54 ± 2.24%; antioxidant activity (in words) (β-carotene fading test): about the same high antioxidant activity as that of each of BHT, α-tocopherol, and eriodictyol
